Read-outs that look alike come from different tables or passages of the source.
Assays:
[1] = Dissociation kinetics of the Mn(II) complexes (acid catalyzed dissociation, metal or ligand exchange reactions); format: physicochemical; settings: I = 0.15 M NaCl, 25 °C; for t1/2 pH = 7.4 cM = 10^−5 M: half-life of dissociation calculated for pH 7.4, 10 μM exchanging metal ion; for t1/2 0.1 M HCl: half-life of dissociation calculated for 0.1 M H+
Procedure: The dissociation reactions were followed by UV-vis spectrophotometry at 269 nm for the pyclen derivatives or at 300 nm for other complexes in the pH range of 3.6–5.0 for the exchange reactions with Cu(II) and up to pH = 6.0 when Zn(II) was used as a ligand scavenger. The acid catalyzed dissociation reactions were performed in the HCl concentration range of 0.05–1.0 M. The concentration of the complexes in the samples was 0.25 mM, while the concentration of the exchanging metal ion in the metal initiated transchelation reactions was 10–40 times higher to ensure pseudo-first-order conditions. Relaxometry was used to follow the transchelation reactions of [Mn(DOTAM)]^2+, [Mn(DO3AM^H)]^2+, [Mn(DO3A)]^−, [Mn(PCTA)]^− and [Mn(ODO3A)]^− with Cu(II)/Zn(II) ions in the pH range of 3.6–5.5 (Figures S17–S19 in Supplementary Material). The concentration of the complexes in these samples was set to 1.0–2.0 mM to achieve relatively large change during the dissociation reaction. […] The temperature was maintained at 25 °C and the ionic strength of the solutions was kept constant at 0.15 M with NaCl. N,N′-dimethyl- (DMP) and N-methyl-piperazine (NMP) buffers (log K2H = 4.18 and 4.90 at 25 °C and I = 0.15 M NaCl, respectively) were used at 0.05 M concentration to keep the pH constant. The pseudo-first-order rate constants (kobs) were calculated by fitting the absorbance or relaxivity-time data pairs to Equation (1) (1) Xt=(X0-Xe)e^-kobst+Xe where Xt, X0, and Xe are the absorbance or relaxivity at time t, at the start and at equilibrium, respectively. The calculations were performed with the computer program Micromath Scientist, version 2.0 (Salt Lake City, UT, USA) using a standard least-squares procedure.
The kinetic inertness of the Mn(II) complexes is the other important parameter for the complexes considered for use in vivo. The inertness of Mn(II) complexes formed with trisubstituted 12-memberd macrocyclic ligands were characterized either by studying the rates of acid catalyzed dissociation or by studying transmetallation reactions occurring between the complexes and a suitable exchanging metal ion such as Zn(II) or Cu(II). The demetallation reactions of labile complexes were performed at high pH by following the ligand exchange reactions with trans-CDTA and DTPA ligands. The demetallation reactions were studied in the presence of a large Cu(II)/Zn(II)/trans-CDTA/DTPA excess or by using high acid concentration in order to ensure pseudo-first-order conditions (Equation 6). Scheme 1 outlines all the possible dissociation pathways for the Mn(II) complexes. […] The reactions of the released Mn(II) and L ligand with the exchanging L' and M' reactants are assumed to be very rapid.
The rate of dissociation can be expressed by the Equation (6), where kobs is the pseudo-first-order rate constant and [Mn(L)]t is the total concentration of the species containing [Mn(L)] complex. The [Mn(L)]t will differ slightly depending on the experimental conditions (in the presence of a large metal or ligand excess). As [Mn(L)]t = [Mn(L)] + [Mn(HL)] + [Mn(H2L)] + [Mn(L)M] + [Mn(L)(L')] + [Mn(HL)(L')] for reactions performed at high pH (in the pH range of 3.0–5.0 often applied in Cu(II) exchange reactions) will involve fewer protonated species while the acid catalyzed dissociation reactions run in the strongly acidic media (0.1–1.0 M acid concentration range) predominantly contain protonated species ([Mn(L)]t = [Mn(L)]+[Mn(HL)]+[Mn(H2L)]). (6) -d[MnL]t/dt=kobs[MnL]t
By taking into account the various complex species and the possible reaction pathways as well as the protonation and stability constants of the reactive intermediates, the following equation (Equation 7) can be derived to describe the rates of dissociation. […]

[2] = cited from earlier work
[3] = Longitudinal water proton relaxivity (r1p) of the Mn(II) complexes; format: physicochemical
Procedure: The relaxometric data were collected using a Bruker Minispec MQ20 NMR relaxometer. […] A datapoint plotted on figures represents an average of 5–6 T1 measurements (Figures S3–S9 in Supplementary Material). The data were fitted by using the molar r1p relaxivity value of the MnCl2 ([…] at 0.49 T and 25 °C). The equilibrium constants were calculated using the PSEQUAD program (Zékány and Nagypál, [1985]).
The longitudinal water proton relaxation rates (r1 = 1/T1-1/Tw) were measured at 20 MHz with a Bruker Minispec MQ-20 relaxometer (Bruker Biospin, Germany). Samples were thermostated by using a circulating water bath at 25.0 ± 0.2 °C. The longitudinal relaxation times (T1) were measured by the inversion-recovery method (180° − τ − 90°), averaging 5–6 data points collected for each concentration point obtained from 14 different τ values (τ values ranging between 0 to at least 6 times the expected T1). The relaxivity of the complexes was determined by titrating a nearly 1.0 mM ligand solution with a Mn(II) stock solution at pH = 7.22–7.43 (50 mM HEPES buffer, I = 0.15 M NaCl, 25 °C). Under these conditions, the only Mn(II) ion containing species present in solution is the [Mn(L)], which was supported by the r1 vs. pH profiles. The relaxivity of the complex was determined as the slope of the strait line obtained by plotting 1/T1p values as a function of Mn(II) concentration for samples with [Ligand] > [Mn(II)]. The relaxivity of [Mn(DOTP)]^6− and [Mn(DO3P)]^4− was determined in the pH range of 10.0–11.0 and 8.5–9.3, respectively where mainly the [Mn(DO3P)]^4− and [Mn(DOTP)]^6− complex exists in solution (Figures S4 and S9 in Supplementary Material).
The relaxivity (r1p, mM^−1s^−1) is defined as the longitudinal water proton relaxation rate in a solution containing 1.0 mM concentration of the paramagnetic species. It characterizes the efficiency of a paramagnetic metal chelate to enhance the solvent proton relaxation rate at a given magnetic field (usually 20 MHz) and temperature. The inner-sphere contribution to relaxivity is directly proportional to the number of metal bound water molecules (q), and therefore, relaxivity values may provide some useful information on the hydration state of paramagnetic complexes of similar molecular weights and electronic relaxation times. […] The r1p values of the Mn(II) complexes formed with heptadentate 12-membered macrocyclic ligands were determined at 0.5 T field strength and 25 °C and reported in Table 4 along with some relaxivity data published for the complexes of hexa-, hepta- and octadentate ligands. […] Below these pH ranges the phosphonate moieties undergo protonation, which further increases the relaxivity (2.60–2.90 mM^−1s^−1 values were observed near pH = 7.4, see Supplementary Material). Similar increase in the relaxivity (to 3.20 mM^−1s^−1 at 20 MHz, 37 °C) is observed for the [Mn(DOTA)]^2− complex upon its protonation and formation of the thermodynamically stable diprotonated [Mn(H2DOTA)] complex that exists as a non-hydrated chelate both in solution and in the solid state (Wang and Westmoreland, [2009]). The relaxivity of the diprotonated species at t → 0 time point was determined from the extrapolation of the relaxivity vs. time data collected after acidification of the samples containing the complexes. The X-ray crystallographic structure of [Mn(H2DOTA)] indicates the protonation of two trans carboxylate moieties (e.g., the coordination around the metal ion is similar to that observed in [Mn(trans-DO2A)] as determined by DFT calculations). Thus, the relaxivity of the diprotonated [Mn(H2DOTA)] and [Mn(H2DOTMA)] complexes is expected to be similar to that of [Mn(trans-DO2A)] (when q = 0). The value obtained by us is considerably higher, which highlights the importance of prototropic exchange as a useful tool to improve the relaxivity of the complexes (however, it has to be underlined that the protonation of the complex generally leads to a decrease in kinetic inertness).

[4] = 0.5 T field strength, 25 °C and pH = 7.4
[5] = ligand exchange reaction with trans-CDTA^4− or DTPA^5− in the pH range 8-9.5

| SMILES | k1 (proton-assisted dissociation) [1] | t1/2 pH = 7.4 cM = 10^−5 M [1] | r1p [3, 4] [mM⁻¹ s⁻¹] | t1/2 0.1 M HCl [1] [min] | also measured |
| --- | --- | --- | --- | --- | --- |
| O=C([O-])CN1CCNCCN(CC(=O)[O-])CCN(CC(=O)[O-])CC1.[Mn+2] [[Mn(DO3A)]^−] | 0.45 ± 0.03 M⁻¹ s⁻¹ | 1.1 × 10^4 h | 1.18 to 1.31 | – | k2 (proton-assisted dissociation) [1]: (3.2 ± 0.3) × 10^2 M^−2s^−1; r1p ([2]; ref Rolla et al. ([2013])): 1.30 mM⁻¹ s⁻¹ |
| NC(=O)CN1CCNCCN(CC(N)=O)CCN(CC(N)=O)CC1.[Mn+2] [[Mn(DO3AM^H)]^2+] | 0.94 ± 0.02 M⁻¹ s⁻¹ | 5.2 × 10^3 h | 1.33 | 0.123 | – |
| O=P([O-])([O-])CN1CCNCCN(CP(=O)([O-])[O-])CCN(CP(=O)([O-])[O-])CC1.[Mn+2] [[Mn(DO3P)]^4−] | – | 3 × 10^−3 h | – | – | k1 (proton-assisted dissociation) [1, 5]: (2.4 ± 0.2) × 10^5 M^−1s^−1; k2 (proton-assisted dissociation) [1, 5]: (2.2 ± 0.3) × 10^14 M^−2s^−1; r1p ([3]; 0.5 T, 25 °C, determined in the pH range of 8.5–9.3): 2.23^[b] mM^−1s^−1; relaxivity ([3]; near pH = 7.4, protonated phosphonate moieties): 2.60 to 2.90 mM⁻¹ s⁻¹ |
| NC(=O)CN1CCN(CC(N)=O)CCN(CC(N)=O)CCN(CC(N)=O)CC1.[Mn+2] [[Mn(DOTAM)]^2+] | (1.6 ± 0.03) × 10^−2 M^−1s^−1 | – | 1.11 | 7.17 | r1p ([2]; 0.5 T field strength (20 MHz) and 37 °C, ref Wang and Westmoreland ([2009])): 0.96 mM⁻¹ s⁻¹ |
| O=C([O-])CN1CCOCCN(CC(=O)[O-])CCN(CC(=O)[O-])CC1.[Mn+2] [[Mn(ODO3A)]^−] | 27 ± 2 M⁻¹ s⁻¹ | 1.8 × 10^2 h | 1.40 | – | k2 (proton-assisted dissociation) [1]: (1.5 ± 0.3) × 10^5 M^−2s^−1 |
| O=C([O-])CNC(=O)CN1CCN(CC(=O)NCC(=O)[O-])Cc2cccc(n2)CN(CC(=O)NCC(=O)[O-])CC1.[Mn+2] [[Mn(PC3AM^Gly)]^−] | – | – | 1.44 | 5.83 | k1 (proton-assisted dissociation) ([1]; proton-assisted dissociation of the [Mn(H3L)] complex): (1.64 ± 0.02) × 10^−2[c] M^−1s^−1; k0 (spontaneous dissociation) ([1]; spontaneous dissociation of the [Mn(H3L)] complex): (3.4 ± 0.2) × 10^−4[c] s^−1 |
| NC(=O)CN1CCN(CC(N)=O)Cc2cccc(n2)CN(CC(N)=O)CC1.[Mn+2] [[Mn(PC3AM^H)]^2+] | (1.07 ± 0.01) × 10^−2 M^−1s^−1 | – | 1.21 | 10.8 | – |
